According to US20030144243A1, “Combination of a crystalline drug form and atiotropium salt” (priority 2001, published 2003):

Experiment: resistivity in solution, crystalline versus amorphous form
Type: physicochemical
Details: compared with the amorphous form at an equivalent concentration in solution

## CCNC(=O)[C@H]1O[C@@H](n2cnc3c(NCC(c4ccccc4)c4ccccc4)nc(C(=O)NCCNC(=O)NC4CCN(c5ccccn5)CC4)nc32)[C@H](O)[C@@H]1O [crystalline form, 6-[(2,2-diphenylethyl)amino]-9-(N-ethyl-β-D-ribofuranosyluronamide)-N-(2-{N′-[1-(2-pyridyl)-4-piperidyl]ureido}ethyl)-9H-purine-2-carboxamide]
  resistivity in solution: higher resistivity than the amorphous form
